Reference: patent publication US11667632B2, “2-(1H-indazol-3-yl)-3H-imidazo[4,5-C]pyridines and their anti-inflammatory uses thereof” (BioSplice Therapeutics, Inc., priority 2015, dated 2023)

Tested on: Interleukin 1β (IL1β)
Assay: Inhibition of inflammatory cytokine expression in IL-1β-stimulated synovial fibroblasts, qRT-PCR
Assay type: cell-based
Conditions: human synovial fibroblasts, IL-1β (100 ng/mL), Compound 10 at 100 nM and 30 nM, 24 hrs; FIG. 14B
Procedure: Synovial fibroblasts were plated in 6-well plates at 0.5 million cells per well in Leibovitz's L-15 Medium with 1% FBS. Compound 10 dissolved in DMSO was added to the wells at different concentrations. […] Cells were harvested by trypsinization, pelleted, washed with PBS and Total RNA was isolated using RNeasy Mini Kit (Qiagen). cDNA was synthesized using the QuantiTect Reverse Transcription kit (Qiagen). qRT-PCR was performed with QuantiTect SYBR Green PCR Kit (Qiagen) and gene-specific primers, using CFX384 (Biorad). Transcripts were quantitated by comparative Ct method and normalized to endogenous controls, β-actin and GAPDH.

Q: With `CC(C)CC(=O)Nc1cncc(-c2ccc3[nH]nc(-c4nc5c(-c6cccc(F)c6)cncc5[nH]4)c3c2)c1` [Compound 10] as the compound, how does the “inhibition of inflammatory cytokine secretion (qRT-PCR)” value read?
A: inhibition
